Laboratory results reported in patent publication US12473295B2, “Substituted straight chain spiro derivatives” (Janssen Pharmaceutica NV, priority 2019, dated 2025).
Where a name gives a salt, the structure may show the parent alone. Read-outs that look alike come from different tables or passages of the source.

Legend:
KO-52 cells = experiment: Proliferation assay (spheroid growth, 8 days), KO-52 control cell line; type: cell-based, human; conditions: read-out: spheroid assay_OneTime KO-52 IC50
Protocol: (§1) The anti-proliferative effect of menin/MLL protein/protein interaction inhibitor test compounds was assessed in human leukemia cell lines. The cell line MOLM14 harbors a MLL translocation and expresses the MLL fusion protein MLL-AF9, respectively, as well as the wildtype protein from the second allele. OCI-AML3 cells that carry the NPM1c gene mutation were also tested. […] KO-52 was used as a control cell line containing two MLL (KMT2A) wildtype alleles in order to exclude compounds that display general cytotoxic effects.
(§2) KO-52 and OCI-AML3 cell lines were propagated in alpha-MEM (Sigma Aldrich) supplemented with 20% heat-inactivated fetal bovine serum (HyClone), 2 mM L-glutamine (Sigma Aldrich) and 50 μg/ml gentamycin (Gibco).
(§3) In order to assess the anti-proliferative effects, 200 MOLM14 cells, 200 OCI-AML3 cells or 300 KO-52 cells were seeded in 200 μl media per well in […] round bottom, ultra-low attachment plates (Costar, catalogue number 7007). Cell seeding numbers were chosen based on growth curves to ensure linear growth throughout the experiment. Test compounds were added at different concentrations and the DMSO content was normalized to 0.3%. Cells were incubated for 8 days at 37° C. and 5% CO2. Spheroid like growth was measured in real-time by live-cell imaging (IncuCyteZOOM, Essenbio, 4× objective) acquiring images at day 8. Confluence (%) as a measure of spheroid size was determined using an integrated analysis tool.
(§4) In order to determine the effect of the test compounds over time, the confluence in each well as a measure of spheroid size, was calculated. Confluence of the highest dose of a reference compound was used as baseline for the LC (Low control) and the confluence of DMSO treated cells was used as 0% cytotoxicity (High Control, HC).
(§5) GraphPad Prism(version 7.00) was used to calculate the IC50. Dose-response equation was used for the plot of % Effect vs Log 10 compound concentration with a variable slope and fixing the maximum to 100% and the minimum to 0%.

MEIS1 mRNA = MEIS1 mRNA expression assay (Quantigene Singleplex) in MOLM14 cells; type: cell-based, human; conditions: 48 hours incubation;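 note: MEIS1 transcript levels read by probe hybridization and normalized to RPL28 mRNA, with IC50 fitted to fold changes across a rising compound concentration series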
[1] = biological target: menin/MLL (terbium chelate-labeled menin, FITC-MBM1 peptide) (Homo sapiens (Human), UniProt O00255); experiment: Menin/MLL homogenous time-resolved fluorescence (HTRF) assay; type: binding;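 note: IC50 from percent inhibition of HTRF signal, normalized between wells without competitor and wells with a saturating competitor that displaces FITC-MBM1 from His-tagged menin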
MOLM14 cells = experiment: Proliferation assay (spheroid growth, 8 days), MOLM14; type: cell-based, human; conditions: MOLM14, 8 days, read-out: spheroid assay_OneTime MOLM14 IC50;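 note: spheroid size read as confluence by live-cell imaging, compounds added at a range of concentrations with 0.3% DMSO, DMSO-treated wells = 0%, highest reference dose = low control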
OCI-AML3 cells = experiment: Proliferation assay (spheroid growth, 8 days), OCI-AML3; type: cell-based, human; conditions: OCI-AML3, 8 days
Protocol: as §1, §2, §3, §4, §5

[2] = HTRF-30 min incubation IC50, 30 min incubation
[3] = read-out: HTRF-30 min incubation IC50, 30 min incubation

Sequence of menin/MLL (terbium chelate-labeled menin, FITC-MBM1 peptide) (O00255 other isoform, or with tags, fused parts or gaps): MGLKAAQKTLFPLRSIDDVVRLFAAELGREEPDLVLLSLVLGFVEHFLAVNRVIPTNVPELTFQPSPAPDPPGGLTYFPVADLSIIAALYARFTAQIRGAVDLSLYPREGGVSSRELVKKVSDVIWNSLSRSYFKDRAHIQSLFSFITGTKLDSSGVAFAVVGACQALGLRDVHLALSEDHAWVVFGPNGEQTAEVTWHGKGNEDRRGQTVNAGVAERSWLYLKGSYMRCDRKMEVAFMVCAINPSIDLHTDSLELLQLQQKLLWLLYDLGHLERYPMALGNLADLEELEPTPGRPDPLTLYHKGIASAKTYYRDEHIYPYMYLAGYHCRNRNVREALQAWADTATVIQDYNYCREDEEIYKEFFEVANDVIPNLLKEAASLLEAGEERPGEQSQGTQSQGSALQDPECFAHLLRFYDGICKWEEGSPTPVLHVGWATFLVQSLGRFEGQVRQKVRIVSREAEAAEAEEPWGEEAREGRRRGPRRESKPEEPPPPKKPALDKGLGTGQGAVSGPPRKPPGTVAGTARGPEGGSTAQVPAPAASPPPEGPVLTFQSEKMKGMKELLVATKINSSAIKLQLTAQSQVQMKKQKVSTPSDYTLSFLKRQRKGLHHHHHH

IC50 (MEIS1 mRNA; Homo sapiens, MOLM-14, 48 h) [nM]	IC50 [1, 2] [nM]	IC50 (MOLM14 cells; Homo sapiens, MOLM-14, […]) [nM]	IC50 (MEIS1 mRNA) [nM]	IC50 [1, 3] [nM]	IC50 (MOLM14 cells) [nM]	IC50 (OCI-AML3 cells; Homo sapiens, OCI-AML-3, […]) [nM]	IC50 (OCI-AML3 cells) [nM]	Structure (SMILES)	IC50 (KO-52 cells; Homo sapiens, […]) [nM]	IC50 (KO-52 cells) [nM]
> 1000	10.4	> 940						CCN(C(=O)c1cc(F)ccc1Oc1nncnc1N1CCC2(C1)CN([C@H](CCCN(C)CC(F)(F)F)C(C)C)C2)C(C)C [Compound 21, (R)-N-ethyl-5-fluoro-N-isopropyl-2-((5-(2-(2-methyl-6-(methyl(2,2,2-trifluormethyl)amino)hexan-3-yl)-2,6-diazaspiro[3.4]octan-6-yl)-1,2,4-triazin-6-yl)oxy)benzamide]	> 15000	
280	1.36	180				1120		CCN(C(=O)c1cc(F)ccc1Oc1nncnc1N1CCC2(C1)CN([C@@H](C[C@@H](C)CN(C)CCOC)C(C)C)C2)C(C)C (single isomer, unassigned) [Compound 241, N-ethyl-5-fluoro-N-isopropyl-2-((5-(2-((3*S,5*R)-6-((2-methoxyethyl)(methyl)amino)-2,5-dimethylhexan-3-yl)-2,6-diazaspiro[3.4]octan-6-yl)-1,2,4-triazin-6-yl)oxy)benzamide fumarate]		
120	0.12	160				380		CCN(C(=O)c1cc(F)ccc1Oc1nnc(OC)nc1N1CCC2(C1)CN([C@H](CCCN(C)C)C(C)C)C2)C(C)C [Compound 410, (R)-2-((5-(2-(6-(dimethylamino)-2-methylhexan-3-yl)-2,6-diazaspiro[3.4]octan-6-yl)-3-methoxy-1,2,4-triazin-6-yl)oxy)-N-ethyl-5-fluoro-N-isopropylbenzamide formate]		
~990	2.26	840						CCN(C(=O)c1cc(F)ccc1Oc1nncnc1N1CCC2(C1)CN([C@@H](CCCN(C)C)C(C)C)C2)C(C)C [Compound 5, (S)-2-((5-(2-(6-(dimethylamino)-2-methylhexan-3-yl)-2,6-diazaspiro[3.4]octan-6-yl)-1,2,4-triazin-6-yl)oxy)-N-ethyl-5-fluoro-N-isopropylbenzamide formate]	> 15000	
> 2500	3.31	2220						CCN(C(=O)c1cc(F)ccc1Oc1nncnc1N1CCC2(C1)CN([C@@H](CCCN)C(C)C)C2)C(C)C [Compound 2, (S)-2-((5-(2-(6-amino-2-methylhexan-3-yl)-2,6-diazaspiro[3.4]octan-6-yl)-1,2,4-triazin-6-yl)oxy)-N-ethyl-5-fluoro-N-isopropylbenzamide formate]	> 15000	
			> 2500	59.7	> 3750			CNC(=O)CC[C@H](C(C)C)N1CC2(CCN(c3ncnnc3Oc3ccc(F)cc3-c3cncnc3C3CC3)C2)C1 (single isomer, unassigned) [Compound 46, (*R)-4-(6-(6-(2-(4-cyclopropylpyrimidin-5-yl)-4-fluorophenoxy)-1,2,4-triazin-5-yl)-2,6-diazaspiro[3.4]octan-2-yl)-N,5-dimethylhexanamide]		> 15000
			> 1000	88.8	1490		9240	CCN(C(=O)c1cc(F)ccc1Oc1nncnc1N1CCC2(C1)CN([C@@H](CCO)C(C)C)C2)C(C)C (single isomer, unassigned) [Compound 215, (*S)—N-ethyl-5-fluoro-2-((5-(2-(1-hydroxy-4-methylpentan-3-yl)-2,6-diazaspiro[3.4]octan-6-yl)-1,2,4-triazin-6-yl)oxy)-N-isopropylbenzamide]		

The remaining lines, values behind:

Structure (SMILES)	IC50 (MEIS1 mRNA; Homo sapiens, MOLM-14, 48 h) [nM]	IC50 [1, 2] [nM]	IC50 (MOLM14 cells; Homo sapiens, MOLM-14, […]) [nM]	IC50 (MEIS1 mRNA) [nM]	IC50 [1, 3] [nM]	IC50 (MOLM14 cells) [nM]	IC50 (OCI-AML3 cells; Homo sapiens, OCI-AML-3, […]) [nM]	IC50 (OCI-AML3 cells) [nM]	IC50 (KO-52 cells; Homo sapiens, […]) [nM]	IC50 (KO-52 cells) [nM]
CC(C)[C@H](CCC(C)(C)N)N1CC2(CCN(c3ncnnc3Oc3ccc(F)cc3-c3cncnc3C3CC3)C2)C1 (single isomer, unassigned) [Compound 38, (*S)-5-(6-(6-(2-(4-cyclopropylpyrimidin-5-yl)-4-fluorophenoxy)-1,2,4-triazin-5-yl)-2,6-diazaspiro[3.4]octan-2-yl)-2,6-dimethylheptan-2-amine]	~1100	1.16	520						> 15000	
CCN(C(=O)c1cc(F)ccc1Oc1nncnc1N1CCC2(C1)CN([C@@H](CCCNC)C(C)C)C2)C(C)C [Compound 20, (S)—N-ethyl-5-fluoro-N-isopropyl-2-((5-(2-(2-methyl-6-(methylamino)hexan-3-yl)-2,6-diazaspiro[3.4]octan-6-yl)-1,2,4-triazin-6-yl)oxy)benzamide hydrochloride]			> 940						> 15000	
CCN(C(=O)c1cc(F)ccc1Oc1nncnc1N1CCC2(C1)CN([C@@H](CCCNC(C)=O)C(C)C)C2)C(C)C [Compound 7, (S)-2-((5-(2-(6-acetamido-2-methylhexan-3-yl)-2,6-diazaspiro[3.4]octan-6-yl)-1,2,4-triazin-6-yl)oxy)-N-ethyl-5-fluoro-N-isopropylbenzamide]	> 2500	86.2	> 3750						> 15000	
CCN(C(=O)c1cc(F)ccc1Oc1nncnc1N1CCC2(C1)CN([C@H](CCCN(C)CC(F)F)C(C)C)C2)C(C)C [Compound 16, (R)-2-((5-(2-(6-((2,2-difluoroethyl)(methyl)amino)-2-methylhexan-3-yl)-2,6-diazaspiro[3.4]octan-6-yl)-1,2,4-triazin-6-yl)oxy)-N-ethyl-5-fluoro-N-isopropylbenzamide]	~670	1.85	370						10500	
CCN(C(=O)c1cc(F)ccc1Oc1nncnc1N1CCC2(C1)CN(C(CCNC(C)=O)C(C)C)C2)C(C)C (stereo not drawn) [Compound 29]	~2250	2.42	970						> 15000	
CC(C)[C@H](CCC(N)=O)N1CC2(CCN(c3ncnnc3Oc3ccc(F)cc3-c3cncnc3C3CC3)C2)C1 (single isomer, unassigned) [Compound 44]	> 2500	46.6	> 3750						> 15000	
CCN(C(=O)c1cc(F)ccc1Oc1nncnc1N1CCC2(C1)CN([C@@H](CCCNC(=O)NC)C(C)C)C2)C(C)C [Compound 9, (S)—N-ethyl-5-fluoro-N-isopropyl-2-((5-(2-(2-methyl-6-(3-methylureido)hexan-3-yl)-2,6-diazaspiro[3.4]octan-6-yl)-1,2,4-triazin-6-yl)oxy)benzamide]		44.7	> 3750						> 15000	
CCN(C(=O)c1cc(F)ccc1Oc1nncnc1N1CCC2(C1)CN([C@@H](CCCO)C(C)C)C2)C(C)C (single isomer, unassigned) [Compound 48, (*S)—N-ethyl-5-fluoro-2-((5-(2-(6-hydroxy-2-methylhexan-3-yl)-2,6-diazaspiro[3.4]octan-6-yl)-1,2,4-triazin-6-yl)oxy)-N-isopropylbenzamide]				> 1000	70.4	> 940				> 15000
CCN(C(=O)c1cc(F)ccc1Oc1nncnc1N1CCC2(C1)CN([C@@H](CCC(C)(C)NC)C(C)C)C2)C(C)C (single isomer, unassigned) [Compound 36, (*S)-2-((5-(2-(2,6-dimethyl-6-(methylamino)heptan-3-yl)-2,6-diazaspiro[3.4]octan-6-yl)-1,2,4-triazin-6-yl)oxy)-N-ethyl-5-fluoro-N-isopropylbenzamide hydrochloride]	> 1000	2.6	> 940						> 15000	
CCN(C(=O)c1cc(F)ccc1Oc1nncnc1N1CCC2(C1)CN([C@@H](CCC(C)(C)N)C(C)C)C2)C(C)C (single isomer, unassigned) [Compound 31, (*S)-2-((5-(2-(6-amino-2,6-dimethylheptan-3-yl)-2,6-diazaspiro[3.4]octan-6-yl)-1,2,4-triazin-6-yl)oxy)-N-ethyl-5-fluoro-N-isopropylbenzamide]	> 1000	2.28	> 940						> 15000	
CCN(C(=O)c1cc(F)ccc1Oc1nncnc1N1CCC2(C1)CN([C@H](CCN(C)CC(N)=O)C(C)C)C2)C(C)C (single isomer, unassigned) [Compound 231, (*R)-2-((5-(2-(1-amino-2-oxoethyl)(methyl)amino)-4-methylpentan-3-yl)-2,6-diazaspiro[3.4]octan-6-yl)-1,2,4-triazin-6-yl)oxy)-N-ethyl-5-fluoro-N-isopropylbenzamide]	~560	1.77	790				1800			
